Measurements taken from paper PMC10263210, “Design, Synthesis and Biological Evaluation of Novel MDH Inhibitors Targeting Tumor Microenvironment” (Pharmaceuticals, 2023).

Experiments:
[1] = biological target: T1, human recombinant MDH1 (Homo sapiens, UniProt P40925); test: MDH1 enzyme activity assay (oxaloacetate-dependent NADH oxidation); assay type: biochemical; conditions: means of three experiments
T1 construct: purchased BioVision
T1 sequence (P40925 1-334): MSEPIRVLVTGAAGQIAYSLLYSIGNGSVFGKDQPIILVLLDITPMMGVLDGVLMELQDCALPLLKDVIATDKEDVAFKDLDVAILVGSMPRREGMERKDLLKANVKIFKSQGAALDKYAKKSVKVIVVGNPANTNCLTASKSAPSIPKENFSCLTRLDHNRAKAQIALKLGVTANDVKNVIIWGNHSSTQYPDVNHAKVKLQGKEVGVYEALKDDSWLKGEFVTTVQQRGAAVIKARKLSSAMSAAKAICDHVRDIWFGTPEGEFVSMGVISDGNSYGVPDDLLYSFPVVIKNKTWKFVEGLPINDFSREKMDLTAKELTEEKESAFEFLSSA
Text: (§1) To develop the dual inhibitors of MDH1 and MDH2, we screened the newly synthesized LW1497 derivatives using MDH and MDH2 enzyme assays. LW1497 was used as the positive control for the MDH1/2 dual inhibitor. We evaluated the ability of the synthesized compounds to inhibit human recombinant MDH1 and MDH2 enzymatic activity using an oxaloacetate-dependent NADH oxidation assay (Table 1, Table 2, Table 3, Table 4, Table 5 and Table 6). Our SAR optimization strategy focused on four different parts of LW1497: (A) the introduction of various groups at different positions on the amide phenyl ring; (B) the replacement of the 3-(4-(2,4,4-trimethylpentan-2-yl) alkyl chain; (C) the alteration of the amide portion; and (D) the modification of the oxypropanamide linker portion (Figure 1).
(§2) The activities of MDH1 and MDH2 were confirmed using an oxaloacetate-dependent NADH oxidation assay. Experiments were conducted using 100 mM of potassium phosphate buffer (pH 7.4) and human recombinant MDH1 (BioVision) and MDH2 (BioVision), and the results were obtained by measuring the absorbance at 340 nm. Enzyme activity was measured using a plate reader at a wavelength of 340 nm.

[2] = biological target: T2, human recombinant MDH2 (Homo sapiens, UniProt P40926); test: MDH2 enzyme activity assay (oxaloacetate-dependent NADH oxidation); assay type: biochemical; conditions: means of three experiments
T2 construct: purchased BioVision
T2 sequence (P40926 25-338): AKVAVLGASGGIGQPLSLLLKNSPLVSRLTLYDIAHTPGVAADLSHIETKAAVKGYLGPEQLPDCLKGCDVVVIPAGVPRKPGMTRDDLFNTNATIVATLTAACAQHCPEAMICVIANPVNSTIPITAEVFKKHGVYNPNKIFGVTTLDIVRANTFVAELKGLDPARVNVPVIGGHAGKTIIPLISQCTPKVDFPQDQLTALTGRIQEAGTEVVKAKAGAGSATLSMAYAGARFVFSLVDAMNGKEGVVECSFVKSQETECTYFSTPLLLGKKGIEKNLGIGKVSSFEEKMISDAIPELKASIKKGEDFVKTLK
Text: as §1, §2

[3] = tested on: A549 lung cancer cells; test: Cell growth inhibition assay (SRB), A549; assay type: cell-based; conditions: Homo sapiens, means of three experiments, read-out: Cell Viability IC50 A549
Experimental: (§3) At the same time, we investigated the effect of the compounds on the growth inhibition of A549 and H460 lung cancer cells bearing KRAS and LKB1 mutations. […] Compound 50 containing a piperidine linker was selected for further analysis.
(§4) Human lung carcinoma A549 cells were cultured in Dulbecco’s modified Eagle’s medium and H460 cells were cultured in RPMI 1640 medium containing 10% fetal bovine serum and 1% penicillin/streptomycin at 37 °C with a 5% Co2 hypoxia experimental condition. The cells were grown in the hypoxia chamber (1% O2, 94% N2, and 5% Co2 in a multigas incubator)
(§5) Cell growth inhibition was assessed using sulforhodamine B (SRB) as described in [34]. The cells were fixed with 10% formalin (Sigma-Aldrich) and stained with 0.4% SRB. Protein-bound dye was dissolved in 10 mM of Tris, and its optical density was measured at 540 nm.

[4] = tested on: H460 lung cancer cells; test: Cell growth inhibition assay (SRB), H460; assay type: cell-based; conditions: Homo sapiens, NCI-H460, means of three experiments, read-out: Cell Viability IC50 H460
Experimental: as §3, §4, §5

SMILES	IC50 [1] [µM]	IC50 [2] [µM]	IC50 [3] [µM]	IC50 [4] [µM]	melting point [°C]
CC(C)(C)CC(C)(C)c1ccc(N(CCC(=O)Nc2cccc(OC(F)(F)F)c2)C2CCC2)cc1 [Compound 57c, 3-(Cyclobutyl(4-(2,4,4-trimethylpentan-2-yl)phenyl)amino)-N-(3-(trifluoromethoxy)phenyl)propanamide]	2.16 ± 0.01	1.18 ± 0.01	7.24 ± 0.11	7.11 ± 0.03	
CC(C)(C)CC(C)(C)c1ccc(OCCC(=O)Nc2ccccc2OC(F)(F)F)cc1 [Compound 5e, N-(2-(Trifluoromethoxy)phenyl)-3-(4-(2,4,4-trimethylpentan-2-yl)phenoxy)propanamide]	3.14 ± 0.14	3.09 ± 0.2	> 10	> 10	
COc1cccc(NC(=O)CCOc2ccc(C(C)(C)CC(C)(C)C)cc2)c1 [Compound 5a, N-(3-Methoxyphenyl)-3-(4-(2,4,4-trimethylpentan-2-yl)phenoxy)propanamide]	6.18 ± 0.74	1.5 ± 0.01	11.1 ± 0.77	8.83 ± 0.34	97 to 99
CN(CC(C)(C)C)c1ccc(OCCC(=O)Nc2cccc(OC(F)(F)F)c2)cc1 [Compound 22, 3-(4-(Methyl(neopentyl)amino)phenoxy)-N-(3-(trifluoromethoxy)phenyl)propanamide]	> 5	3.13 ± 0.29	> 10	> 10	
CC(C)(C)CC(C)(C)c1ccc(NCCC(=O)Nc2cccc(OC(F)(F)F)c2)cc1 [Compound 56, N-(3-(Trifluoromethoxy)phenyl)-3-((4-(2,4,4-trimethylpentan-2-yl)phenyl)amino)propanamide]	1.79 ± 0.04	3.18 ± 0.18	6.06 ± 0.01	5.3 ± 0.01	
CC(C)(C)CC(C)(C)c1ccc(OCCC(=O)Nc2cccc(OC(F)(F)F)c2)cc1 [Compound 5d, N-(3-(Trifluoromethoxy)phenyl)-3-(4-(2,4,4-trimethylpentan-2-yl)phenoxy)propanamide]	0.94 ± 0.05	1.24 ± 0.13	6.42 ± 0.06	6.81 ± 0.04	
O=C(CCOc1ccc(-c2ccc(F)cc2)cc1)Nc1cccc(OC(F)(F)F)c1 [Compound 35b, 3-((4′-Fluoro-[1,1′-biphenyl]-4-yl)oxy)-N-(3-(trifluoromethoxy)phenyl)propanamide]	> 5	> 5	> 10	> 10	101 to 103
CC(C)(C)CC(C)(C)c1ccc(OCCNS(=O)(=O)c2cccc(OC(F)(F)F)c2)cc1 [Compound 44b, 3-(Trifluoromethoxy)-N-(2-(4-(2,4,4-trimethylpentan-2-yl)phenoxy)ethyl)benzenesulfonamide]		> 5	7.32 ± 0.02	7.61 ± 0.24	
CC(C)(C)CC(C)(C)c1ccc(OCCNC(=O)c2cccc(OC(F)(F)F)c2)cc1 [Compound 44a, 3-(Trifluoromethoxy)-N-(2-(4-(2,4,4-trimethylpentan-2-yl)phenoxy)ethyl)benzamide]	3.15 ± 0.11	2.22 ± 0.28	13.2 ± 1.3	12.4 ± 0.21	65 to 67
O=C(CCOc1ccc2cc(Br)ccc2c1)Nc1cccc(OC(F)(F)F)c1 [Compound 39c, 3-((6-Bromonaphthalen-2-yl)oxy)-N-(3-(trifluoromethoxy)phenyl)propanamide]	1.61 ± 0.21	> 5	17.7 ± 0.18	14.8 ± 0.18	128 to 130
O=C(CCOc1ccc(-c2ccccc2)cc1)Nc1cccc(OC(F)(F)F)c1 [Compound 35a, 3-([1,1′-Biphenyl]-4-yloxy)-N-(3-(trifluoromethoxy)phenyl)propanamide]	0.78 ± 0.08	1.38 ± 0.59	> 10	> 10	132 to 134
CC(=O)N(CCC(=O)Nc1cccc(OC(F)(F)F)c1)c1ccc(C(C)(C)CC(C)(C)C)cc1 [Compound 57d, N-(3-(Trifluoromethoxy)phenyl)-3-(N-(4-(2,4,4-trimethylpentan-2-yl)phenyl)acetamido)propanamide]	1.41 ± 0.47	> 5	> 20	> 20	164 to 166
CC(C)(C)CC(C)(C)c1ccc(OCCC(=O)Nc2cccc(C(F)(F)F)c2)cc1 [Compound 5c, N-(3-(Trifluoromethyl)phenyl)-3-(4-(2,4,4-trimethylpentan-2-yl)phenoxy)propanamide]	8.35 ± 2.86	1.04	6.47 ± 0.06	5.68 ± 0.23	88 to 90
O=C(CCOc1ccc2ccccc2c1)Nc1cccc(OC(F)(F)F)c1 [Compound 39a, 3-(Naphthalen-2-yloxy)-N-(3-(trifluoromethoxy)phenyl)propanamide]	> 5	> 5	> 20	> 20	82 to 85
O=C(CCOc1ccc2cc(F)ccc2c1)Nc1cccc(OC(F)(F)F)c1 [Compound 39d, 3-((6-Fluoronaphthalen-2-yl)oxy)-N-(3-(trifluoromethoxy)phenyl)propanamide]	2.25 ± 0.77	18.3 ± 1.8	> 20		102 to 104
CC(C)N(CCC(=O)Nc1cccc(OC(F)(F)F)c1)c1ccc(C(C)(C)CC(C)(C)C)cc1 [Compound 57b, 3-(Isopropyl(4-(2,4,4-trimethylpentan-2-yl)phenyl)amino)-N-(3-(trifluoromethoxy)phenyl)propanamide]	1.61 ± 0.02	1.09 ± 0.06	6.47 ± 0.06	6.06 ± 0.06	
O=C(CCOc1ccc2ccc(Br)cc2c1)Nc1cccc(OC(F)(F)F)c1 [Compound 39b]	1.61 ± 0.25	> 5	14.2 ± 0.2	14.86 ± 0.07	113 to 115
CC(C)(C)CCc1ccc(OCCC(=O)Nc2cccc(OC(F)(F)F)c2)cc1 [Compound 14]	3.05 ± 0.29	1.53 ± 0.08	14.44 ± 0.1	12.8 ± 1.36	
CC(C)(C)CC(C)(C)c1ccc(OCCC(=O)Nc2ccc(OC(F)(F)F)cc2)cc1 [Compound 5f, N-(4-(Trifluoromethoxy)phenyl)-3-(4-(2,4,4-trimethylpentan-2-yl)phenoxy)propanamide]	3.45 ± 0.07	2.12 ± 0.21	5.97 ± 0.71	3.77 ± 0.02	
CC(C)(C)CC(C)(C)c1ccc(OCCC(=O)Nc2cccc(C#N)c2)cc1 [Compound 5b, N-(3-Cyanophenyl)-3-(4-(2,4,4-trimethylpentan-2-yl)phenoxy)propanamide]	6.96 ± 0.12	2 ± 0.05	5.25 ± 0.21	5.84 ± 0.74	112 to 114
CC(C)(C)CNc1ccc(OCCC(=O)Nc2cccc(OC(F)(F)F)c2)cc1 [Compound 21, 3-(4-(Neopentylamino)phenoxy)-N-(3-(trifluoromethoxy)phenyl)propanamide]	> 5	> 5	> 10	> 10	
CC(C)(O)CC(C)(C)c1ccc(OCCC(=O)Nc2cccc(OC(F)(F)F)c2)cc1 [Compound 30, 3-(4-(4-Hydroxy-2,4-dimethylpentan-2-yl)phenoxy)-N-(3-(trifluoromethoxy)phenyl)propanamide]	> 5	> 5	8.28 ± 0.76		
